Source: patent US11179363B2, “Non-steroidal selective glucocorticoid receptor agonistic modulators (SEGRAMs) and uses thereof” (ASSOCIATION POUR LA RECHERCHE À L'IGBMC (ARI), priority 2017, dated 2021)

How the values were obtained:
[1] = test system: DSS-induced Th17 ulcerative colitis; assay: Dextran sodium sulfate (DSS)-induced ulcerative colitis; type: in vivo, Balb/C mice; details: for pro-inflammatory genes overexpressed in DSS-induced ulcerative colitis (IL-1β, IL-6, IL-17a, IL-17f, TSLP, MMP13): colon, q-RT-PCR, D14; for colonic villus/crypt structure (histology) / mucosal and submucosal cell infiltration (histology): i.p. 1 mg/kg on D11, D12, D13, 3% DSS 13 days
Protocol: To investigate the anti-inflammatory activity of CpdX and CpdX-D3 on a Th17 ulcerative colitis, Balb/C mice were treated with 3% DSS in drinking water for 13 days, with or without an intraperitoneal administration of either Dex, CpdX, CpdX(eA), CpdX(eB), CpdX-D3, CpdX-D3(eA) or CpdX-D3(eB) (1 mg/kg of body weight) on D11, D12 and D13.
At D14, RNA transcripts were extracted from mouse colons. IL-1β, IL-6, IL-17a, IL-17f, TSLP and MMP13 transcripts were analyzed by q-RT-PCR. Colon samples were also harvested for histological analyses (with H&E staining).

[2] = test system: adrenal glands; assay: Corticosterone synthesis and adrenal gland after three-month treatment; type: in vivo, B6 male mice; details: three months; for cortex layers, most notably the fasciculata zone, of the adrenal glands (histology) / transcripts of Cyp11a, Cyp11b1 and HSD3β genes in adrenal glands (corticosterone synthesis pathway): s.c. 1 mg/kg daily; for transcripts of Cyp11a, Cyp11b1 and HSD3β genes in adrenal glands (corticosterone synthesis pathway): q-RT-PCR; for plasmatic corticosterone level at 10 a.m.: vs Vehicle
Protocol: B6 male mice (8-week-old) were daily subjected for three months to either a subcutaneous injection of vehicle (NaCl 0.9%), Dex, CpdX, CpdX(eA), CpdX(eB), CpdX-D3, CpdX-D3(eA) or CpdX-D3(eB) (1 mg/kg body weight, diluted in vehicle).
Following this long-term treatment, blood was collected at 10 a.m. and 6 p.m. by retro-orbital puncture in lithium-heparin coated vials, and the plasmatic level of corticosterone was determined. Adrenal glands were harvested and weighted. RNA transcripts were extracted and transcripts of the Cyp11a, Cyp11b1, Cyp11b2 and HSD3β genes were analyzed by q-RT-PCR. Histological analyses of the adrenal glands were also carried out.

[3] = test system: HDM-induced asthma-like allergic lung inflammation; assay: House dust mite (HDM)-induced asthma-like allergic lung inflammation; type: in vivo, mice
Protocol: Glucocorticoids have been (Pearlman et al., 1997. Ann Allergy Asthma Immunol. 78(4):356-62), and are still, widely used in asthma therapy. In order to investigate the possible CpdX anti-inflammatory activity in vivo, mice were sensitized and challenged with either ovalbumin (OVA) or house dust mite (HDM) to induce an asthma-like allergic lung inflammation.
Mice were intranasally sensitized with 1 μg HDM from D0 to D4, and further intranasally sensitized with 10 μg HDM on D14 and D21. Mice were then subdivided into eight groups, and on D29, D30 and D31, each mouse was again intranasally challenged with […]. The first seven groups received respectively 0.5 mg/kg of body weight of Dex, CpdX, CpdX(eA), CpdX(eB), CpdX-D3, CpdX-D3(eA) or CpdX-D3(eB), while the eighth group served as a control.
On D32, the airway responsiveness was invasively determined using a computer-controlled small animal ventilator (FlexVent® system, SCIREQ Technologies). Mice were anesthetized with xylazine (15 mg/kg, i.p.), followed 15 minutes later by an i.p. injection of pentobarbital sodium (54 mg/kg). An 18-gauge metal needle was then inserted into the trachea, each mouse was connected to the FlexVent® ventilator and quasi-sinusoidally ventilated with a tidal volume of 10 mL/kg at a frequency of 150 breaths/minute and a positive end-expiratory pressure of 2 cm H2O, in order to achieve a mean lung volume close to spontaneous breathing. After baseline measurement, mice were challenged for 10 seconds with a saline aerosol and, at 4.5-minute intervals, with 50 mg/mL methacholine. Airway resistance and elastance were expressed as cmH2O.s/mL and cmH2O/mL respectively.
The lung allergic inflammation was assessed by examination of the bronchoalveolar lavage (BAL) fluid from each of these HDM-challenged mice. The total BAL cells, eosinophils, neutrophils, macrophages and lymphocytes were counted. RNA transcripts were extracted from lung samples. RNA transcripts of IL-1β, IL-6, IL-4, IL-5, IL-13, Eotaxin, CCL4, IL-10 and TNFα were analyzed by q-RT-PCR. Lung tissues were harvested and histological (with H&E staining) and immunohistochemical analyses were also carried out (with eosinophil-specific and neutrophil-specific antibodies).

[4] = test system: OVA-induced allergic conjunctivitis; assay: Ovalbumin (OVA)-induced allergic conjunctivitis; type: in vivo, Balb/C mice; details: 0.1% instillation D22 to D24, 20 minutes after the last OVA challenge
Protocol: To investigate the anti-inflammatory effect of CpdX or CpdX-D3 on an allergic conjunctivitis, Balb/C mice were intraperitoneally sensitized with 50 μg OVA with alum on both days D1 and D8, and then challenged from D15 to D21 with 250 μg OVA in 5 μL of sterilized vehicle (0.9% NaCl), which were directly instilled onto the conjunctival sac. From D22 to D24, mice were divided into several groups, and received instillations with either OVA alone, OVA together with 0.1% of either Dex, CpdX, CpdX(eA), CpdX(eB), CpdX-D3, CpdX-D3(eA) or CpdX-D3(eB).
The clinical appearance of mouse eyes was evaluated 20 minutes after the last instillation on D24. Clinical signs (conjunctival hyperemia, lid edema and tearing) were scored to evaluate the occurrence and severity of conjunctivitis as described by Gimenes et al. (2015. Experimental Eye Research 134:24-32). Parameters were graded on a scale ranging from 0 to 3, (0=absence, 1=mild, 2=moderate, and 3=severe symptoms), each animal receiving a total clinical score ranging from 0 to 9. The data were expressed as mean±SEM with at least four mice per treatment.

[5] = Blood glucose and intraperitoneal glucose tolerance test (IPGTT) after three-month treatment; type: in vivo, B6 male mice; details: three months; glucose i.p. injection
Protocol: B6 male mice (8-week-old) were daily subjected for three months to a subcutaneous injection of either vehicle (NaCl 0.9%), Dex, CpdX, CpdX(eA), CpdX(eB), CpdX-D3, CpdX-D3(eA) or CpdX-D3(eB) (1 mg/kg body weight, diluted in vehicle). Mice were over-night-fasted. Mouse blood glucose concentration was measured before (To) and during two hours (T120) after glucose i.p. injection ([…]).

[6] = test system: thymus, spleen, adrenal gland and kidney; assay: Organ weights (thymus, spleen, adrenal gland, kidney) after three-month treatment; type: in vivo, B6 male mice; details: s.c. 1 mg/kg daily, three months
Protocol: B6 male mice (8-week-old) were daily subjected for three months to a subcutaneous injection of either vehicle (NaCl 0.9%), Dex, CpdX, CpdX(eA), CpdX(eB), CpdX-D3, CpdX-D3(eA) or CpdX-D3(eB) (1 mg/kg body weight, diluted in vehicle). Following these treatments, four organs (thymus, spleen, adrenal gland and kidney) were harvested and weighted.

[7] = HDM model, 0.5 mg/kg, D32, vs control group
[8] = HDM model, lung paraffin sections
[9] = methacholine 50 mg/mL, FlexVent

Row | SMILES | pro-inflammatory genes overexpressed in DSS-induced ulcerative colitis (IL-1β, IL-6, IL-17a, IL-17f, TSLP, MMP13) [1] | colonic villus/crypt structure (histology) [1] | mucosal and submucosal cell infiltration (histology) [1] | cortex layers, most notably the fasciculata zone, of the adrenal glands (histology) [2] | transcripts of Cyp11a, Cyp11b1 and HSD3β genes in adrenal glands (corticosterone synthesis pathway) [2] | plasmatic corticosterone level at 10 a.m. [2] | number of neutrophils and macrophages in BAL ([3]; HDM model, 0.5 mg/kg, D32) | total number of BAL cells, eosinophils and lymphocytes [3, 7] | eosinophils in lung (immunohistochemistry, eosinophil-specific antibodies) ([3]; HDM model, data not shown) | lung expression of IL-10 and TNFα ([3]; HDM model, data not shown) | neutrophils in lung (immunohistochemistry, neutrophil-specific antibody) ([3]; HDM model, data not shown) | peribronchiolar and perivascular inflammatory cell infiltration (histology) [3, 8] | lung expression of pro-inflammatory genes (IL-1β, IL-6, IL-4, IL-5, IL-13, Eotaxin, CCL4) ([3]; HDM model, q-RT-PCR) | HDM-induced airway hyperresponsiveness (AHR), airway resistance and elastance [3, 9] | clinical signs of allergic conjunctivitis (conjunctival hyperemia, lid edema and tearing) [4] | blood glucose level during two-hour IPGTT [5] | thymus apoptosis (thymus weight) [6] | total number of BAL cells, eosinophils and lymphocytes ([3]; HDM model, 0.5 mg/kg, D32, vs control group; 0.5 mg/kg)
1 | COc1ccc(F)cc1C(C)(C)CC(O)(CNc1ccc2c(c1)COC2=O)C(F)(F)F (racemic) [CpdX, 5-[4-(5-fluoro-2-methoxyphenyl)-2-hydroxy-4-methyl-2-(trifluoromethyl)pentylamino]-isobenzofuran-1(3H)-one] | similarly repressed | almost reestablished | significantly decreased | markedly increased | increased | much higher | No significant change | significantly decreased | decreased | not affected | no significant change | strongly decreased | significantly and similarly decreased | similarly reduced | considerably reduced | no significant difference | did not result in any significant thymus apoptosis | 
2 | [2H]C([2H])([2H])Oc1ccc(F)cc1C(C)(C)CC(O)(CNc1ccc2c(c1)COC2=O)C(F)(F)F (racemic) [CpdX-D3, 5-{4-[2-(methoxy-D3)-5-fluorophenyl]-2-hydroxy-4-methyl-2-(trifluoromethyl)pentylamino}isobenzofuran-1(3H)-one] | similarly repressed | almost reestablished | significantly decreased | markedly increased | increased | much higher | No significant change | significantly decreased | decreased | not affected | no significant change | strongly decreased | significantly and similarly decreased | similarly reduced | considerably reduced | no significant difference | did not result in any significant thymus apoptosis | 
3 | COc1ccc(F)cc1C(C)(C)CC(O)(CNc1ccc2c(c1)COC2=O)C(F)(F)F (single isomer, unassigned; enantiomer a) [CpdX(eA), 5-[4-(5-fluoro-2-methoxyphenyl)-2-hydroxy-4-methyl-2-(trifluoromethyl)-pentylamino]isobenzofuran-1(3H)-one enantiomer A] | similarly repressed | almost reestablished | significantly decreased | markedly increased | increased | much higher |  |  |  |  |  | decreased | efficiently decreased | reduced | considerably reduced | no significant difference | did not result in any significant thymus apoptosis | efficiently decreased
